Data reported in patent US9290440B2, “Bicyclic compound” (TOA EIYO LTD., priority 2012, dated 2016).
Where two headings read alike, the source gives them in different places.

Legend:
[1] = system: abdominal aorta ring specimen; assay: Evaluation of blood vessel relaxing function (phenylephrine-contracted abdominal aorta ring); conditions: relaxation of rat abdominal aorta contracted with 1 μmol/L phenylephrine; without vs with 10 μmol/L ODQ
Method: The representative compounds of the present invention were evaluated by blood vessel relaxing function according to the following Test Example. In the assay, bleeding from the upper part of a heart of a rat (male, SD) was performed under anesthesia with pentobarbital (30 mg/kg) and then abdominal aorta was extracted. The connecting tissue adhered around blood vessel was removed from the abdominal aorta in an ice-cooled Krebs-Henseleit solution (KH solution) (118 mmol/L sodium chloride, 4.7 mmol/L potassium chloride, 1.2 mmol/L magnesium sulfate, 1.2 mmol/L potassium dihydrogen phosphate, 25 mmol/L sodium hydrogen carbonate, 2.5 mmol/L calcium chloride, and 10 mmol/L glucose, pH 7.4). After that, a ring specimen with length of 2 mm was prepared and fixed in 5 mL organ bath filled with a KH solution. The KH solution was kept at 37° C. and aerated with a mixture gas of 95% O2 and 5% CO2. The specimen was stabilized for 1 hour with static tension of 1 g. The KH solution was exchanged twice during that time. The tension on the specimen was recorded on a multi-channel recorder via pickup and amplifier. After the stabilization of the specimen, contraction was caused by using 1 μmol/L phenylephrine (Phe), and cumulative administration of each compound (0.001, 0.01, 0.03, 0.1, 0.3, 1, 3, 10, 30, 100, 1000, 10000 nmol/L) was performed. For the evaluation of a case in which 1H-1,2,4-oxadiazole-(4,3a)-quinoxalin-1-one (ODQ) is contained, 10 μmol/L ODQ was added 10 minutes before the Phe addition, and the same evaluation as above was performed.
EC50 value was calculated using four-parameter logistics model using Assay Explorer (Accelrys). The test compound solution was dissolved in DMSO such that the concentration of each test compound is 1000 times the final concentration.

[2] = molecular target: T1, human sGC α subunit and β subunit (Homo sapiens, UniProt Q02153); assay: Maximum effect of sGC activating function (Ca2+ fluorescence in CHO-K1 cells expressing human sGC and mouse CNGA2); type: cell-based; conditions: increase ratio of sGC activity vs control solution at 10 μmol/L test compound
T1 construct: expressed in transfected cells
T1 sequence (Q02153 1-619): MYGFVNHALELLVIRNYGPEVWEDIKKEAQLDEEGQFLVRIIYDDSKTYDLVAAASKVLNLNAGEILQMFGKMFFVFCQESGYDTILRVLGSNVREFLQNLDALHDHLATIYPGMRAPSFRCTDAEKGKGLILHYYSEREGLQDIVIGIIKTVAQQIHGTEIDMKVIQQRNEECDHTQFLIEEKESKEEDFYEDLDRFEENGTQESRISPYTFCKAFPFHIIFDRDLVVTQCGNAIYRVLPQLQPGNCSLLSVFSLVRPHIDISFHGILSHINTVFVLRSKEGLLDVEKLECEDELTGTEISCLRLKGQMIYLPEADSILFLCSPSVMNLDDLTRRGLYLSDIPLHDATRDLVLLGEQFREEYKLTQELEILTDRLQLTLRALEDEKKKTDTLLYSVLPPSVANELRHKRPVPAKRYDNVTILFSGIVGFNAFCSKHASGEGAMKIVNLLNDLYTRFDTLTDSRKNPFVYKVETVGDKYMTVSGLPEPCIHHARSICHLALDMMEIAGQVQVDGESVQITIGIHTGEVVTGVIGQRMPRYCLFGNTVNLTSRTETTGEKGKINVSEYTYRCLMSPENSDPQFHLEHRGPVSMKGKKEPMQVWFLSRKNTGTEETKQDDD
T1 sequence (Q02108 1-690 partner): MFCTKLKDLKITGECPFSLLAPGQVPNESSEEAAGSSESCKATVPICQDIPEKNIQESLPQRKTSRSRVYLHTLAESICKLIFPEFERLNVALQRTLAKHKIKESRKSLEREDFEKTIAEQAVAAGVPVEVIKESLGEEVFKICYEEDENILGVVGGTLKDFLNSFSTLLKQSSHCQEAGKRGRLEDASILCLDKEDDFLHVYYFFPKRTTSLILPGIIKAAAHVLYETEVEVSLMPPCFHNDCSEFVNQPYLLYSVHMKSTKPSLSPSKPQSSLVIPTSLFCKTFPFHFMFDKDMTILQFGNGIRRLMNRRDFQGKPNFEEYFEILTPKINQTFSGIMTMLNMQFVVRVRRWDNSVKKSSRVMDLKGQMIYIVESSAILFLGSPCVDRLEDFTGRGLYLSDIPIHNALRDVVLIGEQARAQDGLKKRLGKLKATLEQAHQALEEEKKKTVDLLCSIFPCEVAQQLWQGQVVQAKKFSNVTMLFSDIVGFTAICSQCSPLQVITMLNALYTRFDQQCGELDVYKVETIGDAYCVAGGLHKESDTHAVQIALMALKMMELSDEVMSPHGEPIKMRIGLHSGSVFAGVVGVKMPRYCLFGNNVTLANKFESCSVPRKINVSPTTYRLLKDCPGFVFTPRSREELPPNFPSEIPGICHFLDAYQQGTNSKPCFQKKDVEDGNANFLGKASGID
Method: (§1) For the assay, Chinese hamster ovary cells (CHO-K1 cells) in which human sGC α subunit and β subunit and mouse cyclic nucleotide gated channel (CNGA2) are stably expressed were used.
(§2) CHO-K1 cells in which human sGC and mouse CNGA2 are stably expressed were cultured at 37° C. in F-12 medium containing 10% (v/v) fetal bovine serum (FBS), penicillin (100 U/mL), streptomycin (100 μg/mL), G418 (250 μg/mL), and zeocin (250 μg/mL). The cells were suspended in the culture medium and seeded onto a 96-well plate, and then cultured at 37° C. for 24 hours. After washing with assay buffer 1 (140 mmol/L sodium chloride, 5 mmol/L potassium chloride, 0.5 mmol/L magnesium chloride, 0.01 mmol/L calcium chloride, 10 mmol/L glucose, 0.4 mmol/L magnesium sulfate, 10 mmol/L 4-(2-hydroxyethyl)piperazin-1-ylethane sulfonic acid, and 125 μmol/L sulfinpyrazone, pH 7.4), an indicator solution in which FURA2-AM as a fluorescent Ca^2+ indicator is dissolved at concentration of 5 μmol/L in assay buffer 1 was added followed by culture for 60 minutes at 37° C. The indicator solution was removed. After washing with assay buffer 1, the test compound solution was added and incubated for 10 minutes at room temperature. The plate was placed in a fluorometer (Flex Station II, Molecular Devices, LLC), and then the intracellular calcium concentration was measured as fluorescence intensity ratio which is obtained from each excitation wavelength (excitation wavelength of 340 nm and 380 nm and detection wavelength of 510 nm).
(§3) The test compound solution was prepared by dissolving each of the test compounds in DMSO to a concentration of 10 mmol/L, and then adding the assay buffer 2 (140 mmol/L sodium chloride, 5 mmol/L potassium chloride, 0.5 mmol/L magnesium chloride, 1 mmol/L calcium chloride, 10 mmol/L glucose, 0.4 mmol/L magnesium sulfate, 10 mmol/L 4-(2-hydroxyethyl)piperazin-1-ylethane sulfonic acid, 125 μmol/L sulfinpyrazone, 100 μmol/L isobutylmethylxanthine, 10 μmol/L 1H-[1,2,4]-oxadiazole[4,3-a]quinoxalin-1-one (hereinbelow, ODQ), pH 7.4) for dilution to have test concentration of 10 μmol/L. For the evaluation of a case in which ODQ is not contained, the same evaluation was performed except that ODQ is excluded from assay buffer 2. As a control solution, a DMSO solution was used instead of the test compound solution.
(§4) The activity of the test compound corresponds to the increase ratio (%) of the sGC activity at the time of adding the test compound solution with respect to the sGC activity at the time of adding the control solution, and it was calculated by dividing the fluorescence intensity ratio at the time of adding the test compound by the fluorescence intensity ratio of the control solution and subtracting the sGC activity (100%) at the time of adding the control solution.
In this assay, intracellular cGMP concentration increases as sGC is activated, and according to opening of CNGA2 following the increase of cGMP, intracellular Ca^2+ concentration increases. Thus, SGC activation can be measured by following the change in intracellular Ca^2+ concentration. […] Thus, in the absence of ODQ, the maximum sGC activating function including the heme-dependent activation can be evaluated while the heme-independent sGC activating function can be evaluated in the presence of ODQ.

[3] = molecular target: T1, human sGC α subunit and β subunit; assay: Heme-independent property of sGC activating function (EC50 ratio, CHO-K1 cells expressing human sGC and mouse CNGA2); type: cell-based; conditions: EC50 in the absence of ODQ divided by EC50 in the presence of ODQ, sGC activation
Method: as §1, §2, §3, §4
For the representative compounds, activity was measured in the same manner as Test Example 1 at each test concentration of 0.0001, 0.001, 0.003, 0.01, 0.03, 0.1, 1, and 10 μmol/L.
The degree of heme-independent property of each test compound with regard to sGC activating function was obtained by dividing, for EC50 measured from the concentration-activation curve which has been established from the above, EC50 in the absence of ODQ by EC50 in the presence of ODQ. Specifically, the smaller the EC50 ratio is, the less the change in sGC activating function is, the change in the function being caused by the presence or absence of ODQ, and thus it is found to be more heme-independent.
EC50 value was obtained by measuring the activity of each compound to be tested at concentrations of 0.0001, 0.001, 0.003, 0.01, 0.03, 0.1, 1, and 10 μmol/L and performing the calculation using four-parameter logistics model using Assay Explorer (Accelrys).

[4] = ODQ not contained, read-out: Emax (%) ODQ− (Heme-dependent)
[5] = with 10 μmol/L ODQ, read-out: Emax (%) ODQ+ (Heme-independent)

Structure (SMILES)	EC50 Ratio (ODQ−/ODQ+) [1]	Emax at 10 µM [2, 4]	Emax at 10 µM [2, 5]	EC50 Ratio (ODQ−/ODQ+) [3]
CC(C)c1ccc(COc2ccccc2CCN(CCCCC(=O)O)C2CCCc3cc(C(=O)O)ccc32)cc1 (stereo not drawn) [Example 43, 5-{N-(4-Carboxybutyl)-N-[2-[2-(4-isopropylbenzyloxy)phenyl]ethyl]amino}-5,6,7,8-tetrahydronaphthalene-2-carboxylic acid]	5.5	90.3%	107%	
C[C@@H](Oc1ccccc1CCN(CCCCC(=O)O)C1CCCc2cc(C(=O)O)ccc21)c1ccc(C(C)(C)C)cc1 (stereo partly drawn) [Example 45, 5-{N-[2-[2-[(1R)-1-(4-tert-Butylphenyl)ethoxy]phenyl]ethyl]-N-(4-carboxybutyl)amino}-5,6,7,8-tetrahydronaphthalene-2-carboxylic acid]	3.5	95.3%	121%	
O=C(O)CCCCN(CCc1ccccc1OCc1ccc(CCc2ccccc2)cc1)C1COCc2cc(C(=O)O)ccc21 (stereo not drawn) [Example 8, 4-{N-(4-Carboxybutyl)-N-[2-[2-[4-(2-phenylethyl)benzyloxy]phenyl]ethyl]amino}-isochromane-7-carboxylic acid]		130%	102%	1.80
O=C(O)CCCCN(CCc1ccccc1OC[C@H]1CC[C@@H](CCc2ccccc2)CC1)C1CCCc2cc(C(=O)O)ccc21 (stereo partly drawn) [Example 27, 5-{N-(4-Carboxybutyl)-N-[2-[2-[cis-4-(2-phenylethyl)cyclohexylmethoxy]phenyl]ethyl]amino}-5,6,7,8-tetrahydronaphthalene-2-carboxylic acid]		113%	96.6%	1.84
O=C(O)CCCCN(CCc1ccccc1OCc1ccc(CCc2ccccc2)cc1)C1COc2cc(C(=O)O)ccc21 (stereo not drawn) [Example 7, 3-{N-(4-Carboxybutyl)-N-[2-[2-[4-(2-phenylethyl)benzyloxy]phenyl]ethyl]amino}-2,3-dihydrobenzofuran-6-carboxylic acid]		110%	108%	2.34
O=C(O)CCCCN(CCc1ccccc1OCc1ccc(CCc2ccccc2)cc1)C1CCOc2cc(C(=O)O)ccc21 (stereo not drawn) [Example 4, 4-{N-(4-Carboxybutyl)-N-[2-[2-[4-(2-phenylethyl)benzyloxy]phenyl]ethyl]amino}chromane-7-carboxylic acid]		114%	109%	2.85
O=C(O)CCCCN(CCc1ccccc1OCc1ccc(C2CC2)cc1)C1CCCc2cc(C(=O)O)ccc21 (stereo not drawn) [Example 42, 5-{N-(4-Carboxybutyl)-N-[2-[2-(4-cyclopropylbenzyloxy)phenyl]ethyl]amino}-5,6,7,8-tetrahydronaphthalene-2-carboxylic acid]	4.3	86.7%	122%	
O=C(O)CCCCN(CCc1ccccc1OCc1ccc(CCc2ccccc2)cc1)C1CCc2cc(C(=O)O)ccc21 (stereo not drawn) [Example 1, 1-{N-(4-Carboxybutyl)-N-[2-[2-[4-(2-phenylethyl)benzyloxy]phenyl]ethyl]amino}indane-5-carboxylic acid]		85.6%	103%	2.86
O=C(O)CCCCN(CCc1ccccc1OCc1ccc(CCc2ccccc2)cc1)C1CCCc2nc(C(=O)O)ccc21 (stereo not drawn) [Example 6, 5-{N-(4-Carboxybutyl)-N-[2-[2-[4-(2-phenylethyl)benzyloxy]phenyl]ethyl]amino}-5,6,7,8-tetrahydroquinoline-2-carboxylic acid]		126%	99.9%	0.87
